For 14 compounds, Efficacy and EC50 results are on record in ChEMBL document CHEMBL1138992, “New benzimidazoles as thrombopoietin receptor agonists” (Bioorg Med Chem Lett, 2006).

Test [1] concerns the target T1, Thrombopoietin receptor (Homo sapiens) (UniProt P40238).
T1 sequence (whole entry): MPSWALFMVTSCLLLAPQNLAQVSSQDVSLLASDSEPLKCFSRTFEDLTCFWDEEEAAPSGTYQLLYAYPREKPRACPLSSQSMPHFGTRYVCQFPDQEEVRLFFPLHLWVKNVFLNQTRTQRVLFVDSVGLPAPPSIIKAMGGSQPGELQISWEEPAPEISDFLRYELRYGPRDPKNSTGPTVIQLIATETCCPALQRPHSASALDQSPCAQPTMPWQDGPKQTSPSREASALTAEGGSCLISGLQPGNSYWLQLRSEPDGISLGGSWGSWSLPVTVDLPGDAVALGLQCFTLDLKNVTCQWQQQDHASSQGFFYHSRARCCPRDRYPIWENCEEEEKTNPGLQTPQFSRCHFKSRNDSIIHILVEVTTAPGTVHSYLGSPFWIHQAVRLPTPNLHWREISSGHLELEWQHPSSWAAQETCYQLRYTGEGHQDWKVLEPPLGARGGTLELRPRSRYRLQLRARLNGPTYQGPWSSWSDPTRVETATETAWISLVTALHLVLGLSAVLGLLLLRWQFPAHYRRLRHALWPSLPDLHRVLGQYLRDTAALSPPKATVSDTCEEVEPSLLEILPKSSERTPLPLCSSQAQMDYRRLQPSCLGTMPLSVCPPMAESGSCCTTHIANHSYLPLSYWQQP
Description: (§1) Agonist activity as induced proliferation in Ba/F3-hTpoR murine lymphocyte expressing human TPOR. In kind it is functional.

In another test the target is T2, Thrombopoietin receptor (Homo sapiens, UniProt P40238).
T2 sequence (P40238 whole entry): T1 sequence (whole entry)
The description is as §1. In kind it is functional.

Turning to `CC(C)(C)c1ccc(-c2cccc(-c3nc4cc(CC(C(=O)O)C(=O)O)ccc4[nH]3)n2)cc1`, the Efficacy in test [1] came out at 13%.

As to `Cc1ccc(-c2cccc(-c3nc4c(/C=C5\SC(=S)NC5=O)cccc4[nH]3)n2)cc1C`, on Thrombopoietin receptor, the EC50 result is listed as “Not Active”. In test [1], `C/C(=C\c1ccc2[nH]c(-c3cccc(-c4ccc(C(C)(C)C)cc4)n3)nc2c1)C(=O)O` had an Efficacy of 109%. The same measure, in the same setting: in the case of `O=C1NC(=S)S/C1=C\c1ccc2[nH]c(-c3cccc(-c4ccc(Cl)c(Cl)c4)n3)nc2c1` it was 19%; in that of `CC(C)(C)c1ccc(-c2cccc(-c3nc4cc(/C=C5\SC(=S)NC5=O)ccc4[nH]3)c2)cc1`, 137%; in that of `Cc1ccc(-c2csc(-c3nc4cc(/C=C5\SC(=S)NC5=O)ccc4[nH]3)c2)cc1C`, 123%. `CC(C)(C)c1ccc(-c2cccc(-c3nc4cc(/C=C5\SC(=S)NC5=O)ccc4[nH]3)c2O)cc1` showed an Efficacy in test [1] of 134%. With `Cc1ccc(-c2cccc(-c3nc4cc(/C=C5\SC(=S)NC5=O)ccc4[nH]3)n2)cc1C`, the Efficacy in test [1] stood at 73%. With `Cc1ccc(-c2cccc(-c3nc4c(C=C(C(=O)O)C(=O)O)cccc4[nH]3)n2)cc1C`, the EC50 result at Thrombopoietin receptor is listed as “Not Active”. In turn, `CC(C)(C)c1ccc(-c2cccc(-c3nc4cc(/C=C5\SC(=S)NC5=O)ccc4[nH]3)n2)cc1` yielded an Efficacy in test [1] of 90%.

For `CCOC(=O)/C(C)=C/c1ccc2[nH]c(-c3cccc(-c4ccc(C(C)(C)C)cc4)n3)nc2c1`, the EC50 result on Thrombopoietin receptor is reported as “Not Active”. On to `C/C(=C\c1cccc2[nH]c(-c3cccc(-c4ccc(C)c(C)c4)n3)nc12)C(=O)O`, for which, at Thrombopoietin receptor, the EC50 entry is listed as “Not Active”. In test [1], `CC(C)(C)c1ccc(-c2ccc(-c3nc4cc(/C=C5\SC(=S)NC5=O)ccc4[nH]3)o2)cc1` came in with an Efficacy of 142%. Still for that read-out and setting: the same measure for `Cc1ccc(-c2ccc(-c3nc4cc(/C=C5\SC(=S)NC5=O)ccc4[nH]3)s2)cc1C`: 117%.
